# In PMC12186263, “Molecular Basis for Peptide Nitration by a Novel Cytochrome P450 Enzyme in RiPP Biosynthesis” (ACS Catalysis, 2025):
# Square brackets hold non-standard residues; d marks the D form. Ends that are not written are not given here. Peptide text beside a SMILES is read from it. Nle = CCCC[C@H](N)C(=O)O
# T1: RufO (Streptomyces atratus, UniProt A0A224AU14)
# T1 construct: made in house
# T1 sequence (A0A224AU14 1-394): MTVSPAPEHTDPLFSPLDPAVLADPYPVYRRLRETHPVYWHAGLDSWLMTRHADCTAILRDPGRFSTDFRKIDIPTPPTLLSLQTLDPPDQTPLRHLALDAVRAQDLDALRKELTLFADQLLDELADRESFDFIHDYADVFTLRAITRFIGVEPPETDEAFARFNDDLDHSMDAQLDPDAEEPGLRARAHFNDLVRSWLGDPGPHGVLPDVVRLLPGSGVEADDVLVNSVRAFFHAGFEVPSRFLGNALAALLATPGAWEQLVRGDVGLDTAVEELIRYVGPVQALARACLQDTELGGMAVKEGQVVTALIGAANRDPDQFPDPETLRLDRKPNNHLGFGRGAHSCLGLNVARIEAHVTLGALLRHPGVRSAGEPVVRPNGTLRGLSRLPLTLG
# T2: TxtE (Streptomyces scabiei, UniProt C9ZDC6)
# T2 sequence (C9ZDC6 1-406): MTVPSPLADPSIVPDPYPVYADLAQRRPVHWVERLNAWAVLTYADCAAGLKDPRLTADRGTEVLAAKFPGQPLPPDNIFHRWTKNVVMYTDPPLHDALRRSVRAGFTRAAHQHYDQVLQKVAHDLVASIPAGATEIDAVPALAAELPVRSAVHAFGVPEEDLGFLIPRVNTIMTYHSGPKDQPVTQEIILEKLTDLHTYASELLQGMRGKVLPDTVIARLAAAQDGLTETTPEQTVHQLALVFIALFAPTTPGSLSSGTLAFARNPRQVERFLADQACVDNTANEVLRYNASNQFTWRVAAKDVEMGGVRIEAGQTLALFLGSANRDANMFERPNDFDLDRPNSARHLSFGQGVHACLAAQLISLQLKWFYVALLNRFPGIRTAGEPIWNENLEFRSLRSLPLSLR
# T3: MRYLH pentapeptide (RufO substrate) (Streptomyces atratus)
# T3 chain: MRYLH
# Columns and labels:
# RufO [1] = molecular target: T1, RufO; experiment: X-band cw EPR of RufO with peptide; assay type: binding; settings: 100 μM RufO, 2 mM peptide, 10 K; double-integrated intensities
# Method: 3 Spectroscopic characterization of the RufO heme center with and without peptide substrates. (A) X-band continuous wave EPR spectra of RufO (black), RufO with 2 mM MRYLH (red), and RufO with 2 mM Nle-RYLH (blue), measured at 10 K and 1 mW microwave power. The minor species marked by asterisks likely arise from conformational heterogeneity of the heme center or a freezing artifact. (B) rR spectra of RufO (top), RufO with 2 mM MRYLH (middle), and RufO with 2 mM Nle-RYLH (bottom). The spectra were collected using a 405 nm excitation laser at 5 mW. (C) rR spectra of CO adducts of ferrous RufO (top) and ferrous RufO with 2 mM Nle-RYLH (bottom). Spectra were collected using a 442 nm excitation line at 1 mW. (D) Backbonding correlations between v(Fe–C) and v(C–O) stretching frequencies for various CYPs in the absence (squares) and presence (circles) of ligands. […]
# EPR samples were prepared by mixing 100 μM RufO in the same buffer with 5% glycerol and either 2 mM MRYLH or Nle-RYLH, followed by flash-freezing in 4 mm quartz EPR tubes. […] Each sample was measured at 9.35 GHz microwave frequency at 10 K using 1 mW microwave power. All spectra were recorded with four averaged scans using an ER4119HS resonator at a modulation frequency of 100 kHz and a modulation amplitude of 0.4 mT. The conversion rate of the low-spin species was determined by comparing the double-integrated intensities of the signals. […]
# RufO [2] = molecular target: T1, RufO; experiment: Isothermal titration calorimetry, peptide into RufO; assay type: binding; settings: ITC, 20 °C, 190 μM RufO, 50 mM Tris-HCl, 100 mM NaCl pH 7.5, one set of sites, control subtracted
# Method: ITC experiments were conducted at 20 °C using a MicroCal PEAQ-ITC instrument (Malvern Panalytical). RufO was prepared in a buffer containing 50 mM Tris-HCl and 100 mM NaCl at pH 7.5. The reference cell was filled with water. Each experiment involved 190 μM RufO in the sample cell, titrated with either 2.5 mM MRYLH or 2.8 mM Nle-RYLH in the syringe. Control experiments replaced the protein in the cell with buffer. The titration protocol included an initial 0.4 μL injection (excluded from analysis), followed by 19 injections of 2 μL at 2.5 min intervals. The cell was continuously stirred at 750 rpm. Data analysis was conducted using MicroCal PEAQ-ITC Analysis Software, with heats of dilution determined from the plateau region of the thermograms and subtracted from each integrated peak. All titrations are baseline corrected. The final integrated enthalpic changes were obtained by subtracting the controls from the protein-peptide titrations and fitted to a “one set of sites” binding model.
# RufO [3] = molecular target: T1, RufO; experiment: RufO nitration activity assay (HPLC); assay type: biochemical; settings: 20 μM RufO, 1 mM peptide, SpFdX/SpFdR, pH 8.0, 25 °C, 30 min; highest rate set as 100%; triplicate
# Method: Each assay was performed in triplicate and contained 20 μM CYP enzyme, 80 μM ferredoxin, 40 μM reductase, 1 mM substrate, 1 mM NADH/NADPH, 1 mM DEA NONOate (≥98%, Cayman Chemical), and 132 μL O2-saturated buffer (50 mM Tris, 100 mM NaCl at pH 8.0, bubbled for 30 min) for a final reaction volume of 200 μL. Reactions with CPR in place of the ferredoxin/reductase system contained 40 μM CPR. Reactions were incubated at 25 °C with shaking at 300 rpm for 30 min, then filtered using a 10 kDa cutoff centrifugal filter (Millipore) and analyzed by HPLC. Filtrate was analyzed on an InertSustain C18 column (5 μm particle size, 4.6 mm × 100 mm, GL Sciences Inc.) on a Thermo Fisher Scientific Ultimate-3000SD HPLC rapid separation system equipped with a photodiode array detector. The flow rate was set at 1 mL/min. For RufO assays, solvent A was water and solvent B was 90% acetonitrile (ACN) in water with 0.1% trifluoroacetic acid (TFA). A gradient of 0–70% solvent B was applied over 15 min. For collection of peptide product peaks for mass spectrometry analysis, TFA in solvent B was replaced with formic acid (FA). The method for TxtE assays used water with 0.1% FA as solvent A and ACN with 0.1% FA as solvent B. A gradient of 0–20% solvent B was applied over 10 min, followed by a 5 min hold at 20% solvent B. All presented traces were monitored at an absorbance wavelength of 280 nm. […]
# ferrous RufO = experiment: Stopped-flow transient kinetics of O2 and •NO binding to ferrous RufO; settings: 4 °C; for association rate constant k1: 3.3 μM ferrous RufO, pH 8.0, linear fit
# Method: 5 Transient kinetics of ferrous RufO binding to O2 and ^•NO. Spectral changes following the rapid mixing of 3.3 μM ferrous RufO bound to MRYLH with (A) 18 μM O2 and (C) 70 μM ^•NO over 0.2 s. The black-to-red spectral transitions represent the formation of (A) a ferric-superoxo intermediate and (C) a ferrous-nitrosyl complex. Insets show the time-dependent absorbance changes at 438 nm (the most pronounced shift), fitted using single exponential equations to determine rate constants (red trace). Dependence of rate constant as a function of gas concentration on (B) O2 and (D) ^•NO binding to ferrous RufO alone (blue) and peptide-bound RufO (red). Second-order rate constants were determined through linear fitting. TEXT PRINTED IN THE PICTURE: (A) + O2: kobs = 74.3 s^-1 | (B) RufO alone: k1 = 3.55 μM^-1 s^-1 | (B) peptide-bound: k1 = 3.83 μM^-1 s^-1 | (C) + •NO: kobs = 107.4 s^-1 | (D) RufO alone: k1 = 4.12 μM^-1 s^-1 | (D) peptide-bound: k1 = 2.35 μM^-1 s^-1
# Stopped-flow spectroscopic data were collected using an Applied Photophysics SX20 stopped-flow system equipped with a photodiode array detector. The system was maintained in an anaerobic chamber (O2 < 1 ppm) and all sample preparation was done anaerobically. Measurements were performed at 4 °C. All samples were prepared in a buffer containing 50 mM Tris-HCl and 100 mM NaCl, pH 8.0. RufO was prereduced with a minimal amount of sodium dithionite. The final mixed concentrations of RufO and MRYLH (where applicable) were 3.3 and 24 μM, respectively. Solutions of varying O2 concentrations were prepared by diluting air-saturated buffer with anaerobic buffer. The concentrations of O2 in the air-saturated buffer were measured with an Oxygraph+ oxygen electrode (Hansatech). To generate ^•NO-containing solutions, 0.5 mM DEA NONOate (≥98%, Cayman Chemical) was incubated in anaerobic buffer for 4 h to ensure complete ^•NO release. The ^•NO concentrations were quantified based on a hemoglobin assay, and further dilutions were made with anaerobic buffer immediately prior to mixing. Experimental data were analyzed by the ProK software package from Applied Photophysics. The second-order rate constants were obtained from linear fitting, with the resulting equations: y = 3.55x + 54.4 for the mixing of RufO with O2, y = 3.83x + 6.5 for the ES complex with O2, y = 4.12x −158.0 for RufO with ^•NO, and y = 2.35x – 58.9 for the ES complex with ^•NO.
# Figure S9. Transient kinetics of ferrous RufO alone binding to O2 and •NO Spectral changes following the rapid mixing of 3.3 μM ferrous RufO with (A) 18 μM O 2 and […] superoxo intermediate and (B) a ferrous-nitrosyl complex. Insets show the time-dependent absorbance changes at 438 nm (the most pronounced shift), fitted using first-order exponential equations to determine rate constants (red trace).
# (§1) (1 picture or pasted object on this page, not shown here)
# TxtE [4] = molecular target: T2, TxtE; experiment: ITC of Trp titration to TxtE; assay type: binding; settings: 2 mM Trp into 50 μM TxtE
# Method: (§2) Figure S1. Spectroscopic and ITC analysis of substrate binding in TxtE
# (§3) (A) UV-vis spectra of 2 μM TxtE in the absence (black trace) and presence (red trace) of 0.5 mM
# (§4) Trp; (B) ITC experiment of Trp titration to TxtE.
# (§5) power observed with successive injections of 2 mM Trp to 50 μM TxtE after baseline correction.
# (§6) consistent with a single binding site (red line). (C) Resonance Raman spectra of 100 μM TxtE in
# (§7) the absence (top) and presence (bottom) of 1 mM Trp.
# as §1
# TxtE [5] = molecular target: T2, TxtE; experiment: Resonance Raman of TxtE with Trp; assay type: binding; settings: 100 μM TxtE, 1 mM Trp
# Method: All rR measurements were carried out in 180° backscattering geometry, with scattered light focused by a cylindrical lens (Nikon). The beam passed through a 405 nm notch filter (Thorlabs) for ferric samples or a 442 nm notch filter (Iridian) for ferrous-CO samples, before entering an iHR550 spectrometer (Horiba Scientific). The spectrometer was configured with a 120-μm entrance slit and a 1200 grooves/mm grating (estimated spectral resolution of 10 cm^–1) for ferric samples, or a 350-μm slit and 2400 grooves/mm grating (estimated spectral resolution of 10 cm^–1) for ferrous-CO samples, with detection by a liquid nitrogen-cooled Symphony CCD detector (Horiba Scientific). The accuracy of absolute frequencies is about ±1 cm^–1 based on duplicated measurements. Measurements were conducted at room temperature in 5 mm NMR tubes constantly spinning to prevent local heating and protein degradation. The acquisition times for ferric and CO-bound samples were set to 40 min and 2 h, respectively. UV–vis spectra were recorded before and after the measurements to ensure no photodegradation occurred. rR spectra were calibrated with fenchone (for all samples) and acetone-d 6 (for ferrous-CO samples in high-frequency regions) and processed using GRAMS/AI software (ThermoFisher).
# as §2, §3, §4, §5, §6, §7, §1
# TxtE [6] = molecular target: T2, TxtE; experiment: UV-vis of TxtE with Trp; assay type: binding; settings: 2 μM TxtE, 0.5 mM Trp
# Method: as §2, §3
# Trp; (B) ITC experiment of Trp titration to TxtE. […]
# as §1
# [7] = molecular target: T3, MRYLH pentapeptide (RufO substrate); experiment: ITC
molecule,measurement,setting,value
MRYLH [MRYLH],conversion of original low-spin species to new low-spin species,RufO [1],84%
same,Kd,RufO [2],0.78 ± 0.3 µM
CCCC[C@H](N)C(=O)N[C@@H](CCCNC(=N)N)C(=O)N[C@@H](Cc1ccc(O)cc1)C(=O)N[C@@H](CC(C)C)C(=O)N[C@@H](Cc1c[nH]cn1)C(=O)O [Nle-RYLH] (H-[Nle]RYLH-OH),conversion of original low-spin species to new low-spin species,RufO [1],84%
same,conversion rate (normalized),RufO [3],100%
same,Kd,RufO [2],1.6 µM
nitric oxide [•NO],kobs,"ferrous RufO; MRYLH-bound ferrous RufO 3.3 μM, 70 μM •NO, 438 nm, single exponential",107.4 s⁻¹
same,association rate constant k1,"ferrous RufO; MRYLH-bound, 24 μM MRYLH",2.35 μM^–1 s^–1
same,association rate constant k1,ferrous RufO; RufO alone,4.12 μM^–1 s^–1
same,•NO concentration below which nitrosyl complex not detectable,ferrous RufO; RufO alone,< 50 µM
same,•NO concentration below which nitrosyl complex not detectable,ferrous RufO; peptide-bound RufO,< 70 µM
"N[C@@H](Cc1c[nH]c2ccccc12)C(=O)O [Trp, L-tryptophan]","ΔS, in words",TxtE [4],negative ΔS
same,Kd,TxtE [4]; single binding site,16 µM
same,ΔH,"TxtE [4]; single binding site, exothermic",-14.6 kcal/mol
same,"low-spin ν10 (1640 cm^–1), in words",TxtE [5],disappearance
same,ν4 on Trp binding,TxtE [5]; initially 1374 cm^–1,1373 cm^–1
same,ν3 on Trp binding,"TxtE [5]; initially 1504 cm^–1, six- to five-coordinate high-spin conversion",1488 cm^–1
same,ν2 on Trp binding,TxtE [5]; initially 1588 cm^–1,1570 cm^–1
same,Soret band position on substrate binding,TxtE [6],390 nm
RufO (protein) MTVSPAPEHTDPLFSPLDPAVLADPYPVYRRLRETHPVYWHAGLDSWLMTRHADCTAILRDPGRFSTDFRKIDIPTPPTLLSLQTLDPPDQTPLRHLALDAVRAQDLDALRKELTLFADQLLDELADRESFDFIHDYADVFTLRAITRFIGVEPPETDEAFARFNDDLDHSMDAQLDPDAEEPGLRARAHFNDLVRSWLGDPGPHGVLPDVVRLLPGSGVEADDVLVNSVRAFFHAGFEVPSRFLGNALAALLATPGAWEQLVRGDVGLDTAVEELIRYVGPVQALARACLQDTELGGMAVKEGQVVTALIGAANRDPDQFPDPETLRLDRKPNNHLGFGRGAHSCLGLNVARIEAHVTLGALLRHPGVRSAGEPVVRPNGTLRGLSRLPLTLG,Kd,[7],0.78 µM
